According to publication PMC7764612 (Pharmaceuticals, 2020):
Values joined by “and” are separate entries in the source; they are usually repeats but may differ in a detail not shown here. Identical values can stand only once. “Also recorded” adds a separate entry of the source.

Legend:
[1] = in vitro; conditions: human
[2] = test system: TBEV Hypr strain; assay type: cell-based, tick-borne encephalitis virus
[3] = test system: TBEV Neudoerfl strain; assay type: cell-based, tick-borne encephalitis virus
[4] = test system: TBEV Neudoerfl strain; experiment: microbe, parasite or virus in culture; assay type: cell-based, tick-borne encephalitis virus; conditions: for IC50: Tick-borne encephalitis virus, A549, 72 h, read-out: IC50 (concentration to reduce infectious viral titers by 50%)
[5] = test system: TBEV E protein; assay type: cell-based, tick-borne encephalitis virus

| Compound | CC50 [1] | TBEV-induced cytopathic effect / rate of cell death [2] | Inhibition of TBEV propagation (size and number of plaques) [3] | Reduction in the number of plaques [3] | Effect on TBEV titers in dose-response assay [4] | Reduction in viral titer [4] | SI (selectivity index: CC50/IC50) [4] | IC50 [4] | Production of TBEV E protein (Western blot) [5] | melting point | Plaques detected in dose-response plaque reduction assay [3] | Virus detected in culture supernatant (viral titer) [4] |
| --- | --- | --- | --- | --- | --- | --- | --- | --- | --- | --- | --- | --- |
| CC(=O)OC[C@H]1O[C@@H](n2cc(CNC(=O)[C@H]3O[C@@H](n4ccc(=O)[nH]c4=O)[C@@H]4OC(C)(C)O[C@@H]43)nn2)[C@H](OC(C)=O)[C@@H](OC(C)=O)[C@H]1OC(C)=O [Compound 17] | 137 µM | – | – | – | – | – | – | – | – | – | – | – |
| CC(=O)OC[C@H]1O[C@@H](NC(=O)[C@H]2O[C@@H](n3ccc(=O)[nH]c3=O)[C@@H]3OC(C)(C)O[C@@H]32)[C@H](OC(C)=O)[C@@H](OC(C)=O)[C@@H]1OC(C)=O [Compound 13] | 129 µM | – | – | – | – | – | – | – | – | – | – | – |
| CC(=O)OC[C@H]1O[C@@H](n2cc(CNC(=O)[C@H]3O[C@@H](n4ccc(=O)[nH]c4=O)[C@H](O[Si](C)(C)C(C)(C)C)[C@@H]3O[Si](C)(C)C(C)(C)C)nn2)[C@H](OC(C)=O)[C@@H](OC(C)=O)[C@H]1OC(C)=O [Compound 19, 1-(2″,3″,4″,6″-tetra-O-acetyl-β-D-galactopyranosyl)-4-(2′,3′-di-O-tert-butyldimethylsilyl-uridine-5′-carbonylaminomethyl)-[1,2,3]-triazole] | 77 µM | strongly reduced; also recorded: significantly increased cell survival | effectively inhibited virus propagation | 81% | significantly reduced TBEV titers in a dose-dependent manner | 10^3–10^6 fold | 5.1 | 15.1 µM | dose-dependent reduction | – | – | – |
| CC(=O)OC[C@H]1O[C@@H](OCc2cn(C[C@H]3O[C@@H](n4ccc(=O)[nH]c4=O)[C@@H]4OC(C)(C)O[C@@H]43)nn2)[C@H](OC(C)=O)[C@@H](OC(C)=O)[C@H]1OC(C)=O [Compound 23, 2′,3′-O-isopropylidene-5′-deoxy-5′-[4-(2″,3″,4″,6″-tetra-O-acetyl-β-D-galactopyranosyl-oxymethyl)-1,2-3-triazol-1-yl]uridine] | 157 µM | – | – | – | – | – | – | – | – | 101 to 105 °C | – | – |
| CC(=O)OC[C@H]1O[C@@H](OCc2cn(C[C@H]3O[C@@H](n4ccc(=O)[nH]c4=O)[C@@H]4OC(C)(C)O[C@@H]43)nn2)[C@H](OC(C)=O)[C@@H](OC(C)=O)[C@@H]1OC(C)=O [Compound 22, 2′,3′-O-isopropylidene-5′-deoxy-5′-[4-(2″,3″,4″,6″-tetra-O-acetyl-β-D-glucopyranosyl-oxymethyl)-1,2-3-triazol-1-yl]uridine] | 173 µM | – | – | – | – | – | – | – | – | 108 to 110 °C | – | – |
| CC(=O)OC[C@H]1O[C@@H](n2cc(CNC(=O)[C@H]3O[C@@H](n4ccc(=O)[nH]c4=O)[C@H](O[Si](C)(C)C(C)(C)C)[C@@H]3O[Si](C)(C)C(C)(C)C)nn2)[C@H](OC(C)=O)[C@@H](OC(C)=O)[C@@H]1OC(C)=O [Compound 18, 1-(2″,3″,4″,6″-tetra-O-acetyl-β-D-glucopyranosyl)-4-(2′,3′-di-O-tert-butyldimethylsilyl-uridine-5′-carbonylaminomethyl)-[1,2,3]-triazole] | 69 µM | strongly reduced; also recorded: significantly increased cell survival | effectively inhibited virus propagation | 98% | significantly reduced TBEV titers in a dose-dependent manner | 10^3–10^6 fold | 7.4 | 9.3 µM | dose-dependent reduction | – | – | – |
| CC(=O)OC[C@H]1O[C@@H](n2cc(COC[C@H]3O[C@@H](n4ccc(=O)[nH]c4=O)[C@H](O[Si](C)(C)C(C)(C)C)[C@@H]3O[Si](C)(C)C(C)(C)C)nn2)[C@H](OC(C)=O)[C@@H](OC(C)=O)[C@H]1OC(C)=O [Compound 21, 1-(2″,3″,4″,6″-tetra-O-acetyl-β-D-galactopyranosyl)-4-(2′,3′-di-O-tert-butyldimethylsilyl-uridine-5′-O-methyl)-[1,2,3]-triazole] | 116 µM | nearly completely inhibited; also recorded: significantly increased cell survival | nearly a complete inhibition of TBEV propagation | 92% and 62% | significantly reduced TBEV titers in a dose-dependent manner | 10^4 fold | 24.7 | 4.7 µM | dose-dependent reduction; also recorded: greatly decreased at all tested concentrations | – | no plaques were detected | no virus was detected |
| CC1(C)O[C@@H]2[C@H](O1)[C@@H](C(=O)N[C@@H]1O[C@H](COCc3ccccc3)[C@@H](OCc3ccccc3)[C@H](OCc3ccccc3)[C@H]1OCc1ccccc1)O[C@H]2n1ccc(=O)[nH]c1=O [Compound 15, N-(2″,3″,4″,6″-tetra-O-benzyl-β-D-galactopyranosyl)-2′,3′-O-isopropylidene-uridine-5′-amide] | 153 µM | – | – | – | – | – | – | – | – | – | – | – |
| CC(=O)OC[C@H]1O[C@@H](n2cc(CNC(=O)[C@H]3O[C@@H](n4ccc(=O)[nH]c4=O)[C@@H]4OC(C)(C)O[C@@H]43)nn2)[C@H](OC(C)=O)[C@@H](OC(C)=O)[C@@H]1OC(C)=O [Compound 16] | 136 µM | – | – | – | – | – | – | – | – | – | – | – |
| CC(=O)OC[C@H]1O[C@@H](n2cc(COC[C@H]3O[C@@H](n4ccc(=O)[nH]c4=O)[C@H](O[Si](C)(C)C(C)(C)C)[C@@H]3O[Si](C)(C)C(C)(C)C)nn2)[C@H](OC(C)=O)[C@@H](OC(C)=O)[C@@H]1OC(C)=O [Compound 20, 1-(2″,3″,4″,6″-tetra-O-acetyl-β-D-glucopyranosyl)-4-(2′,3′-di-O-tert-butyldimethylsilyl-uridine-5′-O-methyl)-[1,2,3]-triazole] | 184 µM | nearly completely inhibited; also recorded: significantly increased cell survival | nearly a complete inhibition of TBEV propagation | 96% and 75% | significantly reduced TBEV titers in a dose-dependent manner | 10^3 fold | 49.7 | 3.7 µM | complete inhibition of viral protein synthesis | – | no plaques were detected | no virus was detected |
| CC(=O)OC[C@H]1O[C@@H](NC(=O)[C@H]2O[C@@H](n3ccc(=O)[nH]c3=O)[C@@H]3OC(C)(C)O[C@@H]32)[C@H](OC(C)=O)[C@@H](OC(C)=O)[C@H]1OC(C)=O [Compound 14] | 114 µM | – | – | – | – | – | – | – | – | – | – | – |
